In US9265756B2, “Crystalline forms of grapiprant” (Aratana Therapeutics Inc., priority 2014, dated 2016):
“Also recorded” adds a separate entry of the source. Each block holds one molecule with its values, some of them ahead of it.

How the values were obtained:
[1] = water activity relating Forms A and D; format: physicochemical; details: room temperature
Description: Overall, FIG. 1 summarizes the relationship of each polymorphic form with relationship to each other. Form J may be converted to Form D by drying in air (1). Form J may be converted to Form A by slurry in DCM/acetone (<1:2 v/v) at 25° C. (2). Form A may be converted to Form J by precipitation from DCM/n-heptane (2:1 v/v) (3). Forms A and D have an aw value of about 0.6 at room temperature (4). Form X may be converted from a slurry mixture of Form D and Form J in DCM/acetone or DCM/n-heptane (2:1 v/v) at room temperature (5). Form X may be converted to Form A by slurry in DCM/acetone (1:1 v/v) (6). Form A may be converted to Form X by slurry in DCM/acetone (≦1:3 v/v (7) or 1:2 v/v with 0.3 wt. % water (8)). Form X2 may be converted to Form A by slurry in DCM/acetone (1:3 v/v) with 0.3 wt. % water (9). Form A may be converted to Form X2 by slurry in acetone with 0.3 wt. % water (10). Form X2 may be converted to Form X3 by drying (11). Form X2 may also be generated by slurry of Forms A and X3 in DCM/acetone (1:3 v/v) with 0.3 wt. % water (12).

[2] = stability of crystalline forms (slurry experiments); details: in 1:1 DCM/acetone (v/v)
Description: The stability of the crystalline forms was analyzed using slurry experiments. A portion of the solvent of interest was saturated with grapiprant in a small vial. Additional grapiprant was then added to the vial, and the resulting slurry was stirred using a magnetic stir bar.

[3] = solid form change on heating (XRPD); format: physicochemical
Description: The X-ray powder diffraction (XRPD) pattern was determined using an X-ray diffractometer. The instrument was equipped with a long fine focus X-ray tube (with a copper Kα radiation source operated at 45 kV/40 mA), and a diffracted beam monochromator mounted in front of a scintillation detector. The instrument parameters included a scan range of 3.0 to 40.0 degrees 2-theta, a step size of 0.02 degrees 2-theta, and a scan time of 12.7 seconds per step. The instrument was interfaced with a computer for data acquisition and analysis. Each sample was uniformly crushed with a spatula edge and placed on a quartz, zero-background holder.

[4] = tested on: thermal hyperalgesia induced by intraplantar injection of PGE2; details: oral administration; cited from earlier work
[5] = tested on: other human prostanoid receptor subtypes; details: cited from earlier work
[6] = tested on: mechanical hyperalgesia induced by carrageenan model; details: cited from earlier work
[7] = tested on: complete Freund's adjuvant-induced chronic inflammatory pain response; details: cited from earlier work

aw value [1]: about 0.6
relative stability of crystalline forms [2]: more stable than Form J
SMILES: CCc1nc2c(C)nc(C)cc2n1-c1ccc(CCNC(=O)NS(=O)(=O)c2ccc(C)cc2)cc1 [Form A]

SMILES: CCc1nc2c(C)nc(C)cc2n1-c1ccc(CCNC(=O)NS(=O)(=O)c2ccc(C)cc2)cc1 [Form J]
form after heating (XRPD) ([3]; heating to 120° C.): becomes Form A; also recorded: converted into Form A

SMILES: CCc1nc2c(C)nc(C)cc2n1-c1ccc(CCNC(=O)NS(=O)(=O)c2ccc(C)cc2)cc1 [Form X]
form after heating (XRPD) ([3]; heating to 110° C.): becomes amorphous; also recorded: converted into amorphous

SMILES: CCc1nc2c(C)nc(C)cc2n1-c1ccc(CCNC(=O)NS(=O)(=O)c2ccc(C)cc2)cc1 [grapiprant, N-{2-[4-(2-ethyl-4,6-dimethyl-1H-imidazo[4,5-c]pyridin-1-yl)phenyl]ethyl}-N′-[(4-methylphenyl)sulfonyl]urea]
ED50, reduction of thermal hyperalgesia [4]: 12.8 mg/kg
selectivity for the EP4 receptor over other human prostanoid receptor subtypes [5]: highly selective
effect on mechanical hyperalgesia [6]: significantly reduces
effect on chronic inflammatory pain response [7]: reverses
